Earlier results, collected in patent US20250066562A1, “METHOD AND MATERIAL FOR DIFFERENTIATED SEQUESTRATION OF SUBSTANCES OF DIFFERENT SUBSTANCE GROUPS WITH THE AID OF HYDROGELS CONTAINING SULPHATED OR SULPHONATED COMPONENTS” (LEIBNIZ-INSTITUT FÜR POLYMERFORSCHUNG E.V., priority 2017, published 2025).

What was measured:
thrombin = thrombin (Homo sapiens, UniProt P00734); settings: according to Freudenberg et al., J. Controlled Release 220 (2015) 79-88
antithrombin = antithrombin (Homo sapiens, UniProt P01008); settings: according to Freudenberg et al., J. Controlled Release 220 (2015) 79-88
Chain of antithrombin (P01008 33-464): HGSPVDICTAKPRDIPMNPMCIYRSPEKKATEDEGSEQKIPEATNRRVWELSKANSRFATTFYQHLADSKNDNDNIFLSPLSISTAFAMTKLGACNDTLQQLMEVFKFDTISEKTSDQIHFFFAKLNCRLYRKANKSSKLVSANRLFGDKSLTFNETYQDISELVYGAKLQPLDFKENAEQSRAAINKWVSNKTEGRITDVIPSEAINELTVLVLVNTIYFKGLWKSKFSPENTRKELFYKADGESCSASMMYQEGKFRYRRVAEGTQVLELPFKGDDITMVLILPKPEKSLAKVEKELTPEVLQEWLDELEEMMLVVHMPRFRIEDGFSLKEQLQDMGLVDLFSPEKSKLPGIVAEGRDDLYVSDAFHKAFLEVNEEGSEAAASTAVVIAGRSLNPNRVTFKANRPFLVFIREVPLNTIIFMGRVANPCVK

Row | Substance | Interaction with thrombin (thrombin) | Interaction with antithrombin (antithrombin)
1 | Heparin [GB1] | interaction | interaction
2 | N-desulfated Heparin [GB2] | lack of interaction | lack of interaction
